Reference: patent publication US11485742B2, “2-azaspiro[3.4]octane derivatives as M4 agonists” (NOVARTIS AG, priority 2019, dated 2022)

Columns and labels:
[1] = molecular target: T1, human cloned CHRM3 receptor (Homo sapiens, UniProt P20309); assay: CHRM3 Ca++ Flux Assay (M3_CHO cells, agonist mode); format: cell-based; details: for M3 FDSS PA % / Emax: Percent Activity (PA) measured to EC100 of Carbachol; for EC50: agonist mode, geometric mean if tested more than once, read-out: M3 FDSS EC50; for Emax: read-out: M3 FDSS PA %
T1 construct: expressed in transfected cells; host or cells: CHO-K1 (M3_CHO)
T1 sequence (P20309 whole entry): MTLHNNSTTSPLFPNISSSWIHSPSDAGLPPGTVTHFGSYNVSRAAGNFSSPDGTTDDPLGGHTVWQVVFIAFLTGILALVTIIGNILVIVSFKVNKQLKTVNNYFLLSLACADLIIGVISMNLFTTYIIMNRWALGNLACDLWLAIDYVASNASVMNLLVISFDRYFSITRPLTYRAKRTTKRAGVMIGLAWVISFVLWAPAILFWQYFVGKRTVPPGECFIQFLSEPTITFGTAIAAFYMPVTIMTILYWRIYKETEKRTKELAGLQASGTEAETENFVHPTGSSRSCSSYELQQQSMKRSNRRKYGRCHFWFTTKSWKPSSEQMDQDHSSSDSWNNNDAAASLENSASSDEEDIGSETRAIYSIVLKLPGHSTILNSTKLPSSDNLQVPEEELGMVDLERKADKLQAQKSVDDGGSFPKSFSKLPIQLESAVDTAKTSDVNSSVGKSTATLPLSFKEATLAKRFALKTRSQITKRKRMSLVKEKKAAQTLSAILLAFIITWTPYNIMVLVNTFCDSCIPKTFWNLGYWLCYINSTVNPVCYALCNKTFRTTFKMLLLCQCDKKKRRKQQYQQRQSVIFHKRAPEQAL
Description: (§1) The above examples were characterized by measuring the intracellular mobilization of Ca^++ ions caused by signaling events mediated by the receptor. The Intra-cellular Calcium flux levels were captured by the highly sensitive Ca^++ indicator, Calcium Assay Kit (BD Biosciences; Catalog Number 640178. The fluorescent activity from all receptors were monitored by the fluorescent imager, FDSS 7000EX (Hamamatsu) over a span of 3 minutes. The change in Calcium flux was readily captured upon activation with the muscarinic orthosteric agonist, Carbachol.
CHO-K1 cells stably expressing the human cloned CHRM3 receptor (M3_CHO cells) were grown and maintained in a monolayer culture with F12/HAM (Life Technologies) supplemented with 10% Fetal Bovine Serum, IX Pen-Strep, and 0.4 mg/mL Geneticin in a humidified atmosphere (5% CO2) at 37° C. The cultures were grown to 80-90% confluency in T150 flasks (Corning) and washed with 1×DPBS and lifted with 0.05% Trypsin (Life Technologies). The cells were then spun (1K rpm, 3 minutes) and frozen using Recovery Cell Culture Freezing Media (Gibco Technologies). Cells were stored in liquid nitrogen and thawed a day before the assay. A similar procedure was used for cells stably expressing the human cloned CHRM5 receptor (M5_CHO).
Prior to the day of the assay, stable M3_CHO or M5_CHO cells were thawed and plated on Greiner 384 well black TC treated plates at 12K cells/well in F12/DMEM supplemented with 10% FBS (Hyclone) and kept overnight in a humidified atmosphere (5% CO2) at 37° C. The next day, cells were loaded with Ca^++ dye (BD Biosciences) using Loading Buffer (HBSS +Ca/+Mg, 20 mM HEPES, 2.5 mM Probenecid) and placed back in cell incubator for a minimum of 1 hour. After incubation, the dye was replaced with Assay Buffer (HBSS −Ca/−Mg, 20 mM HEPES, 2.5 mM Probenecid) and kept at room temperature in the dark before running on cell imager. The FDSS 7000EX (Hamamatsu) was used to acquire Ca^+− traces from cells treated with 11 point dose response of compounds in triplicate in order to generate dose response curves in agonist mode. All compounds were serially diluted in DMSO then prepared in Assay Buffer for Ca^++ flux studies. The dose response curves were generated from the average of triplicate wells obtained from each data point and used a non-linear regression of four parameter dose response algorithm. The Percent Activity (PA) was measured to EC100 of Carbachol.
(§2) If an Example was tested more than once in an assay, then the values below represent the geometric mean of the results from each independent experiment.

[2] = molecular target: T2, human cloned CHRM4 receptor (Homo sapiens, UniProt P08173); assay: CHRM4 Ca++ Flux Assay (M4_CHO cells, agonist mode); format: cell-based; details: for M4 FDSS PA % / Emax: Percent Activity (PA); for EC50: geometric mean if tested more than once, read-out: M4 FDSS EC50; for Emax: read-out: M4 FDSS PA %
T2 construct: expressed in transfected cells; host or cells: CHO-K1 (M4_CHO)
T2 sequence (P08173 1-479): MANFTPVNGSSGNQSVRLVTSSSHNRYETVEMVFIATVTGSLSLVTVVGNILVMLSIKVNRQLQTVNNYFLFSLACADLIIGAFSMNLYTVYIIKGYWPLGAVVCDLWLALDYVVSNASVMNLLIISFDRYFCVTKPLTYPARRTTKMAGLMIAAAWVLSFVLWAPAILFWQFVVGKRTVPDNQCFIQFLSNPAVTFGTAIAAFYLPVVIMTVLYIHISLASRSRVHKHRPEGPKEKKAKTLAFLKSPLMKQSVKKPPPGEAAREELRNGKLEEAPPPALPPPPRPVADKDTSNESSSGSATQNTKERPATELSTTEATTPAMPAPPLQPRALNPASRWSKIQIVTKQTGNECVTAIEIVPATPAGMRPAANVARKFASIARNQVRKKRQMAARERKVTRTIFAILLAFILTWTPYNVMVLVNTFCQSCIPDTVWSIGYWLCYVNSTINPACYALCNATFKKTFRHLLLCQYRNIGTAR
Description: as §1
CHO-K1 cells stably expressing the human cloned CHRM4 receptor (M4_CHO cells) were grown and maintained in a monolayer culture with F12/HAM (Life Technologies) supplemented with 10% Fetal Bovine Serum, 1X Pen-Strep, and 0.4 mg/mL Geneticin in a humidified atmosphere (5% CO2) at 37° C. The cultures were grown to 80-90% confluency in T150 flasks (Corning) and washed with 1×DPBS then lifted with 0.05% Trypsin (Life Technologies). The cells were harvested in growth media then spun (1K rpm, 3 minutes) and cryopreserved using Recovery Cell Culture Freezing Media (Gibco Technologies). Cells were stored in liquid nitrogen and thawed a day before the assay.
Prior to the day of the assay, stable M4_CHO cells were thawed and plated on 384 well black walled clear bottom TC treated plates (Greiner Cat #781091) at 12K cells/well using F12/HAM Media supplemented with 10% FBS (Life Technologies) and kept overnight in a humidified atmosphere (5% CO2) at 37° C. The next day, cells were loaded with 20 μL Ca^++ dye (BD Biosciences) using Loading Buffer (HBSS +Ca/+Mg, 20 mM HEPES, 2.5 mM Probenecid) and placed back in cell incubator for a minimum of 1 hour. After incubation, the dye was replaced with 45 μL Assay Buffer (HBSS −Ca/−Mg, 20 mM HEPES, 2.5 mM Probenecid) supplemented with 20 μM ATP (Sigma Aldrich) and kept at room temperature in the dark for 60 minutes before running on a cell imager. The FDSS 7000EX (Hamamatsu) was used to capture Ca^++ traces for a span of 3 minutes from cells treated with 11 point dose of compound in triplicate in order to generate dose response curves in agonist mode. All compounds were serially diluted in DMSO then prepared in Assay Buffer for Ca^++ flux studies. The dose response curves were generated from the average of triplicate wells obtained from each data point and used a non-linear regression of four parameter dose response algorithm. The Percent Activity (PA) was measured to EC100 of Carbachol.
as §2

Compound	M3 FDSS PA % [1]	EC50 [1]	M4 FDSS PA % [2]	EC50 [2]	Emax [1]	Emax [2]
OC[C@H]1C[C@H](Oc2ccc(F)cc2C2CCN([C@@H]3COC4(C3)CN(c3nnco3)C4)CC2)C1 (single isomer, unassigned) [Example 2HH, ((1S,3r)-3-(2-(1-((S)-2-(1,3,4-oxadiazol-2-yl)-5-oxa-2-azaspiro[3.4]octan-7-yl)piperidin-4-yl)-4-fluorophenoxy)cyclobutyl)methanol or ((1R,3s)-3-(2-(1-((S)-2-(1,3,4-oxadiazol-2-yl)-5-oxa-2-azaspiro[3.4]octan-7-yl)piperidin-4-yl)-4-fluorophenoxy)cyclobutyl)methanol]	0%	> 25000 nM	85%	124 nM		
Fc1ccc(O[C@@H]2CCOC2)c(C2CCN([C@@H]3COC4(C3)CN(c3nnco3)C4)CC2)c1 [Example 1D, (S)-7-(4-(5-fluoro-2-(((R)-tetrahydrofuran-3-yl)oxy)phenyl)piperidin-1-yl)-2-(1,3,4-oxadiazol-2-yl)-5-oxa-2-azaspiro[3.4]octane]		> 25000 nM		21 nM	0%	80%
Fc1cc(F)c(OCC2COC2)c(C2CCN([C@@H]3COC4(C3)CN(c3nnco3)C4)CC2)c1 [Example 2DD, (S)-7-(4-(3,5-difluoro-2-(oxetan-3-ylmethoxy)phenyl)piperidin-1-yl)-2-(1,3,4-oxadiazol-2-yl)-5-oxa-2-azaspiro[3.4]octane]		> 25000 nM		155 nM	0%	64%
C[C@H](Oc1ccc(F)cc1C1CCN([C@@H]2COC3(C2)CN(c2nnco2)C3)CC1)C1CCOCC1 [Example 2X, (S)-7-(4-(5-fluoro-2-((S)-1-(tetrahydro-2H-pyran-4-yl)ethoxy)phenyl)piperidin-1-yl)-2-(1,3,4-oxadiazol-2-yl)-5-oxa-2-azaspiro[3.4]octane or(S)-7-(4-(5-fluoro-2-((R)-1-(tetrahydro-2H-pyran-4-yl)ethoxy)phenyl)piperidin-1-yl)-2-(1,3,4-oxadiazol-2-yl)-5-oxa-2-azaspiro[3.4]octane]	0%	> 25000 nM	40%	1780 nM		
Fc1cc(OC2CCOCC2)c(C2CCN([C@@H]3COC4(C3)CN(c3nnco3)C4)CC2)cc1F [Example 2GG, (S)-7-(4-(4,5-difluoro-2-((tetrahydro-2H-pyran-4-yl)oxy)phenyl)piperidin-1-yl)-2-(1,3,4-oxadiazol-2-yl)-5-oxa-2-azaspiro[3.4]octane]		> 25000 nM		87 nM	0%	58%
CC(C)(O)COc1ccc(F)cc1C1CCN([C@@H]2COC3(C2)CN(c2ncco2)C3)CC1 [Example 4K, (S)-1-(4-fluoro-2-(1-(2-(oxazol-2-yl)-5-oxa-2-azaspiro[3.4]octan-7-yl)piperidin-4-yl)phenoxy)-2-methylpropan-2-ol]		> 25000 nM		25 nM	0%	66%
COc1ccccc1C1CCN([C@@H]2COC3(C2)CN(c2ncns2)C3)CC1 [Example 5B, (S)-7-(4-(2-methoxyphenyl)piperidin-1-yl)-2-(1,2,4-thiadiazol-5-yl)-5-oxa-2-azaspiro[3.4]octane]		> 25000 nM		87 nM	0%	59%
c1ccc(C2CCN([C@@H]3COC4(C3)CN(c3ncco3)C4)CC2)c(O[C@H]2CCOC2)c1 [Example 4H, (S)-2-(oxazol-2-yl)-7-(4-(2-(((S)-tetrahydrofuran-3-yl)oxy)phenyl)piperidin-1-yl)-5-oxa-2-azaspiro[3.4]octane]		> 25000 nM		17 nM	0%	69%
Fc1ccc(OC2CCOCC2)c(C2CCN([C@@H]3COC4(C3)CN(c3nncs3)C4)CC2)c1 [Example 5J, (S)-7-(4-(5-fluoro-2-((tetrahydro-2H-pyran-4-yl)oxy)phenyl)piperidin-1-yl)-2-(1,3,4-thiadiazol-2-yl)-5-oxa-2-azaspiro[3.4]octane]		> 25000 nM		29 nM	0%	92%
CC(C)(O)[C@H]1C[C@H](Oc2ccc(F)cc2C2CCN([C@@H]3COC4(C3)CN(c3nnco3)C4)CC2)C1 (single isomer, unassigned) [Example 2V, 2-((1S,3r)-3-(2-(1-((S)-2-(1,3,4-oxadiazol-2-yl)-5-oxa-2-azaspiro[3.4]octan-7-yl)piperidin-4-yl)-4-fluorophenoxy)cyclobutyl)propan-2-ol or 2-((1R,3s)-3-(2-(1-((S)-2-(1,3,4-oxadiazol-2-yl)-5-oxa-2-azaspiro[3.4]octan-7-yl)piperidin-4-yl)-4-fluorophenoxy)cyclobutyl)propan-2-ol]	0%	> 25000 nM	75%	94 nM		
CC(C)(O)[C@H]1C[C@H](Oc2ccc(F)cc2C2CCN([C@@H]3COC4(C3)CN(c3nnco3)C4)CC2)C1 (single isomer, unassigned) [Example 2W, 2-((1S,3r)-3-(2-(1-((S)-2-(1,3,4-oxadiazol-2-yl)-5-oxa-2-azaspiro[3.4]octan-7-yl)piperidin-4-yl)-4-fluorophenoxy)cyclobutyl)propan-2-ol or 2-((1R,3s)-3-(2-(1-((S)-2-(1,3,4-oxadiazol-2-yl)-5-oxa-2-azaspiro[3.4]octan-7-yl)piperidin-4-yl)-4-fluorophenoxy)cyclobutyl)propan-2-ol]	0%	> 25000 nM	70%	87 nM		
COc1cc(F)ccc1C1CCN([C@@H]2COC3(C2)CN(c2nncs2)C3)CC1 [Example 5T, (S)-7-(4-(4-fluoro-2-methoxyphenyl)piperidin-1-yl)-2-(1,3,4-thiadiazol-2-yl)-5-oxa-2-azaspiro[3.4]octane]		> 25000 nM		208 nM	0%	61%
